The values that follow come from ChEMBL document CHEMBL5653615 (J Biol Chem, 2013).

Experiment [1] has as its target Receptor-type tyrosine-protein kinase FLT3 (Homo sapiens) (UniProt P36888). The experiment in a line: Inhibition of human FLT3 at 500 nM by HotSpot assay relative to control.
For experiment [2], the target named is Receptor tyrosine-protein kinase erbB-2 (Homo sapiens) (UniProt P04626). The experiment in a line: Inhibition of human ERBB2 at 500 nM by HotSpot assay relative to control.
Experiment [3] has as its target T1, Serine/threonine-protein kinase BRSK1 (Homo sapiens) (UniProt Q8TDC3).
T1 sequence (whole entry): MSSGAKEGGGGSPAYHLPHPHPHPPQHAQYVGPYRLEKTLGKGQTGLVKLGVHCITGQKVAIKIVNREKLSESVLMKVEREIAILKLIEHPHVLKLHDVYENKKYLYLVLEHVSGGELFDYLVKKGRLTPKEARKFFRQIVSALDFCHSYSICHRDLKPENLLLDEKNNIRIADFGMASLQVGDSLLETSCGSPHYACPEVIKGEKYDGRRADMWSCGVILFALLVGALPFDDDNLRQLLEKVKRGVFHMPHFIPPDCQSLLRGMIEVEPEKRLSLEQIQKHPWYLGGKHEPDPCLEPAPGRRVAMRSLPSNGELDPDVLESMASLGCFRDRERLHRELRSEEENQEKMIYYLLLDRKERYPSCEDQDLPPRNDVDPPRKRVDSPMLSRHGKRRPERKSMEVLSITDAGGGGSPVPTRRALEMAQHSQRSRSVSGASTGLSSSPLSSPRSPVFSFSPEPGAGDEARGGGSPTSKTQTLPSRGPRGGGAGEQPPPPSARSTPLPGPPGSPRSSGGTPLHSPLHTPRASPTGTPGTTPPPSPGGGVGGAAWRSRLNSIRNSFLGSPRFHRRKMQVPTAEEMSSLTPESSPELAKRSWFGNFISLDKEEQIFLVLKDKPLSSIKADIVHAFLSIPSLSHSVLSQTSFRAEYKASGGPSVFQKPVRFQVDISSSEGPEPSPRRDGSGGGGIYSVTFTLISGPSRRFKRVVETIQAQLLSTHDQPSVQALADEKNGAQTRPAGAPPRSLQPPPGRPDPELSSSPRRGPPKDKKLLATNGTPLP
The experiment in a line: Inhibition of human BRSK1 at 500 nM by HotSpot assay relative to control.

The target in experiment [4] is Serine/threonine-protein kinase PAK 3 (Homo sapiens) (UniProt O75914). Briefly: Inhibition of human PAK3 at 500 nM by HotSpot assay relative to control.
For experiment [5], the target named is Protein kinase C theta type (Homo sapiens) (UniProt Q04759). Briefly: Inhibition of human PKCtheta at 500 nM by HotSpot assay relative to control.
The target of experiment [6] is MAP kinase-activated protein kinase 3 (Homo sapiens) (UniProt Q16644). Briefly: Inhibition of human MAPKAPK3 at 500 nM by HotSpot assay relative to control.
Experiment [7] has as its target T2, Mitogen-activated protein kinase 12 (Homo sapiens) (UniProt P53778).
T2 sequence (whole entry): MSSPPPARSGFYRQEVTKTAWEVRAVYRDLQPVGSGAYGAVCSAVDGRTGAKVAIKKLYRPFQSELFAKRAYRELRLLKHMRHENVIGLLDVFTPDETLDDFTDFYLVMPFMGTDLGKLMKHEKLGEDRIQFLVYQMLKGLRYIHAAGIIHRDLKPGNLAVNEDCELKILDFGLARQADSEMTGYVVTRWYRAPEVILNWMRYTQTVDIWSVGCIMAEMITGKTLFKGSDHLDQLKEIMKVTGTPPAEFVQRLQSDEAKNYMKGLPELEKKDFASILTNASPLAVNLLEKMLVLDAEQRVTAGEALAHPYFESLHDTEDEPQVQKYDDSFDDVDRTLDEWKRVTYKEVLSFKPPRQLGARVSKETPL
Briefly: Inhibition of human P38g at 500 nM by HotSpot assay relative to control.

For experiment [8], the target named is T3, Activin receptor type-1B (Homo sapiens) (UniProt P36896).
T3 sequence (whole entry): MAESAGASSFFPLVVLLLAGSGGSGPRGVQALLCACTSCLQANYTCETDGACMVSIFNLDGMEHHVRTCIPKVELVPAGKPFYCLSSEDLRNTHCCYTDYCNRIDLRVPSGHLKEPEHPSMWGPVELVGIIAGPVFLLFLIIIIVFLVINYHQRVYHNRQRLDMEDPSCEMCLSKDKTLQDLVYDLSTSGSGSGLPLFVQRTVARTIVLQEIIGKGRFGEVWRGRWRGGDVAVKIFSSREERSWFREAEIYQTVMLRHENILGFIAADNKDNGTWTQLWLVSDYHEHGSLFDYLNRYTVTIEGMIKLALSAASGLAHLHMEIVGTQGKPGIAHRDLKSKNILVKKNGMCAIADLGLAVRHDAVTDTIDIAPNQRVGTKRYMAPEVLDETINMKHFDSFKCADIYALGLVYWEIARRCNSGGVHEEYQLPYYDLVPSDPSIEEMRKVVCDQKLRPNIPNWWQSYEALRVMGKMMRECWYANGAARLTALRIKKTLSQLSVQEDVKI
Briefly: Inhibition of human ALK4 at 500 nM by HotSpot assay relative to control.

Experiment [9] concerns the target T4, Serine/threonine-protein kinase D2 (Homo sapiens) (UniProt Q9BZL6).
T4 sequence (whole entry): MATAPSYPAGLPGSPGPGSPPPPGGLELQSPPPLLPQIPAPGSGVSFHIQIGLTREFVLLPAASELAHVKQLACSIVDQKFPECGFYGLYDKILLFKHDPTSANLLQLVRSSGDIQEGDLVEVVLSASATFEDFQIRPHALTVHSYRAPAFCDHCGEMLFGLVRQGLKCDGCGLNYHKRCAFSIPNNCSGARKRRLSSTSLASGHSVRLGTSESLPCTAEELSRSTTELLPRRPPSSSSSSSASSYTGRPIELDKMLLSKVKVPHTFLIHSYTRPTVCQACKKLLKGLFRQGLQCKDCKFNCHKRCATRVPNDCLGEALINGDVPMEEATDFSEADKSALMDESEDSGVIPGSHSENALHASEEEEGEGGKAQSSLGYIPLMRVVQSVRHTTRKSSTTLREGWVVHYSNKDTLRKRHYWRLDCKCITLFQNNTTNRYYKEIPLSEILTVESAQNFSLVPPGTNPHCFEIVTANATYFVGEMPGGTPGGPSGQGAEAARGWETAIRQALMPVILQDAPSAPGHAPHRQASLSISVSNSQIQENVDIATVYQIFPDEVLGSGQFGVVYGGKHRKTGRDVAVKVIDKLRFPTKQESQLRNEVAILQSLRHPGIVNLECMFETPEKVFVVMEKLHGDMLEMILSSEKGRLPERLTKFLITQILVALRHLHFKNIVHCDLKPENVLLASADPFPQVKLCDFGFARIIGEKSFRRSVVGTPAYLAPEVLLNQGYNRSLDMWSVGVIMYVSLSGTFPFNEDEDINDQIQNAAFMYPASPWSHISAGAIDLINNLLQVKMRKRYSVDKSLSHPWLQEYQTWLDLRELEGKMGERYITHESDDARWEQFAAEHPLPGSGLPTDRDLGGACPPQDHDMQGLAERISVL
The experiment in a line: Inhibition of human PRKD2 at 500 nM by HotSpot assay relative to control.

Serine/threonine-protein kinase PAK 3 (Homo sapiens), sequence (O75914 whole entry, looked up): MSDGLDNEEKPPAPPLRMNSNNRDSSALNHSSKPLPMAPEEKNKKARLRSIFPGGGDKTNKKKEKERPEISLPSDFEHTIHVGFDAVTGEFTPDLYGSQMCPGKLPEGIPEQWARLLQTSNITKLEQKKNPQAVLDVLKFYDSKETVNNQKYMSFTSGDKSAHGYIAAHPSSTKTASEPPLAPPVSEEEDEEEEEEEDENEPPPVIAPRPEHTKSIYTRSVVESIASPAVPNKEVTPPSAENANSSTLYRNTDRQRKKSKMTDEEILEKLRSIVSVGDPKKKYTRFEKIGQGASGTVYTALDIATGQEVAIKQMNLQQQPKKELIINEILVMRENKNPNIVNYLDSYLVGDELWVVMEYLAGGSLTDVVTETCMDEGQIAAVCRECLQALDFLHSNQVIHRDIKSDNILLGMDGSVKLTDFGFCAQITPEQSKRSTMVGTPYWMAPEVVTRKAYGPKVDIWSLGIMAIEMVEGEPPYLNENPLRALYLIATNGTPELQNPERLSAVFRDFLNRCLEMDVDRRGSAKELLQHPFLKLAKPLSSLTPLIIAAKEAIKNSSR
Receptor tyrosine-protein kinase erbB-2 (Homo sapiens), sequence (P04626 whole entry): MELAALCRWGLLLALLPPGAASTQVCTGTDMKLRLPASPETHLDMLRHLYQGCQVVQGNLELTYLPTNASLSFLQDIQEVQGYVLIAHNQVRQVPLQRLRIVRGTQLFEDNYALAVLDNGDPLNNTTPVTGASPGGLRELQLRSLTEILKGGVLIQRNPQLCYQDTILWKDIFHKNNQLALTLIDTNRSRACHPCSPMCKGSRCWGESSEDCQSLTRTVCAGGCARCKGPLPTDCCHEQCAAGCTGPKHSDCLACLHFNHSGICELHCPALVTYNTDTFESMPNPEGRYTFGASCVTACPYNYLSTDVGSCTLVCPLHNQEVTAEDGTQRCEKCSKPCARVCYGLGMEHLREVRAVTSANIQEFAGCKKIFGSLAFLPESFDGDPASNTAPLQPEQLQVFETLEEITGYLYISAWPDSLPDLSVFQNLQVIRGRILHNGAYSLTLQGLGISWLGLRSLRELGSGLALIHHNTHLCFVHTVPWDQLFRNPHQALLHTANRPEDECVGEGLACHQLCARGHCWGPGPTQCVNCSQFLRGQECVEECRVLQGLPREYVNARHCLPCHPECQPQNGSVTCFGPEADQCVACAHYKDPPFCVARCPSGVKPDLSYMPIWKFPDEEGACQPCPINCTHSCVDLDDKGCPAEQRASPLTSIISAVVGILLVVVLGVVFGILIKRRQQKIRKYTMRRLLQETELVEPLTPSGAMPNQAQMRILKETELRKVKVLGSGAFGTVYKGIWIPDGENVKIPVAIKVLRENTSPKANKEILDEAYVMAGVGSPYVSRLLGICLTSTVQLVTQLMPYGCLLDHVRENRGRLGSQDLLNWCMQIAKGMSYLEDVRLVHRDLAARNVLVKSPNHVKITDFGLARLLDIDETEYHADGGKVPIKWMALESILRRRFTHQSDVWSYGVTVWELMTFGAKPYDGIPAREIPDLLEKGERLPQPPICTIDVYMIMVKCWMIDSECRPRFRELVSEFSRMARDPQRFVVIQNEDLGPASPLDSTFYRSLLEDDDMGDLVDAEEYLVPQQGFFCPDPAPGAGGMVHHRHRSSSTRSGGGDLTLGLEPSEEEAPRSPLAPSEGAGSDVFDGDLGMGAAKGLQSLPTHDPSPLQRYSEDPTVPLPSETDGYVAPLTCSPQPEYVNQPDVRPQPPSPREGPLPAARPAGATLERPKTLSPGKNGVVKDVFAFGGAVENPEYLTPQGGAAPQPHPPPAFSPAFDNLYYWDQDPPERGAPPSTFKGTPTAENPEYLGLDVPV
Protein kinase C theta type (Homo sapiens), sequence (Q04759 whole entry, looked up): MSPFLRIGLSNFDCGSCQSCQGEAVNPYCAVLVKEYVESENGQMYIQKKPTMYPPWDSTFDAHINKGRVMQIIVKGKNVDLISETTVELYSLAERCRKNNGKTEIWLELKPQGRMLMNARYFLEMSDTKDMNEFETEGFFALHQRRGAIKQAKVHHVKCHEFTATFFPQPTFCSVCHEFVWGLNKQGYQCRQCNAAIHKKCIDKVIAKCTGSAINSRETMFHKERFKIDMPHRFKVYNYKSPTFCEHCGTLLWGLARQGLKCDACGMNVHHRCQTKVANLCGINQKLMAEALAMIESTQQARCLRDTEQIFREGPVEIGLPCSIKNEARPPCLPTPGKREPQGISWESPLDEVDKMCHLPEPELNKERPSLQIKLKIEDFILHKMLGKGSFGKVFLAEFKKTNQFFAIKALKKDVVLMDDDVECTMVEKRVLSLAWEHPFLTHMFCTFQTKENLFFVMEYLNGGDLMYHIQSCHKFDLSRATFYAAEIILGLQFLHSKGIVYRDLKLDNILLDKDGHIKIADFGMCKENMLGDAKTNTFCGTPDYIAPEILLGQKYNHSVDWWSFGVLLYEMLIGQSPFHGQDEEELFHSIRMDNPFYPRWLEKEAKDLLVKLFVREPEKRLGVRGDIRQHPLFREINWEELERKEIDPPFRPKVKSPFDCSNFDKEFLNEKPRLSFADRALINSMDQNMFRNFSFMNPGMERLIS
MAP kinase-activated protein kinase 3 (Homo sapiens), sequence (Q16644 whole entry, looked up): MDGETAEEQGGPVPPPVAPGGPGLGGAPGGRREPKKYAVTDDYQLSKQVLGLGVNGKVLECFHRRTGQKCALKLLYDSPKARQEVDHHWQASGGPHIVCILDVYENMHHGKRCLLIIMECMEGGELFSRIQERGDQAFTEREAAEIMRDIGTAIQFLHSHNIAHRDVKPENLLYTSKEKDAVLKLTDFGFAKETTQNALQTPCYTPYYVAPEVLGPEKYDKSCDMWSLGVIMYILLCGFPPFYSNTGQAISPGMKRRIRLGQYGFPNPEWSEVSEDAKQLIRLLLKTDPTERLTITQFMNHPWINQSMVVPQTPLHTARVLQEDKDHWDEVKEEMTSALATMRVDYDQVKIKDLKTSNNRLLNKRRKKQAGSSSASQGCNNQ
Receptor-type tyrosine-protein kinase FLT3 (Homo sapiens), sequence (P36888 whole entry): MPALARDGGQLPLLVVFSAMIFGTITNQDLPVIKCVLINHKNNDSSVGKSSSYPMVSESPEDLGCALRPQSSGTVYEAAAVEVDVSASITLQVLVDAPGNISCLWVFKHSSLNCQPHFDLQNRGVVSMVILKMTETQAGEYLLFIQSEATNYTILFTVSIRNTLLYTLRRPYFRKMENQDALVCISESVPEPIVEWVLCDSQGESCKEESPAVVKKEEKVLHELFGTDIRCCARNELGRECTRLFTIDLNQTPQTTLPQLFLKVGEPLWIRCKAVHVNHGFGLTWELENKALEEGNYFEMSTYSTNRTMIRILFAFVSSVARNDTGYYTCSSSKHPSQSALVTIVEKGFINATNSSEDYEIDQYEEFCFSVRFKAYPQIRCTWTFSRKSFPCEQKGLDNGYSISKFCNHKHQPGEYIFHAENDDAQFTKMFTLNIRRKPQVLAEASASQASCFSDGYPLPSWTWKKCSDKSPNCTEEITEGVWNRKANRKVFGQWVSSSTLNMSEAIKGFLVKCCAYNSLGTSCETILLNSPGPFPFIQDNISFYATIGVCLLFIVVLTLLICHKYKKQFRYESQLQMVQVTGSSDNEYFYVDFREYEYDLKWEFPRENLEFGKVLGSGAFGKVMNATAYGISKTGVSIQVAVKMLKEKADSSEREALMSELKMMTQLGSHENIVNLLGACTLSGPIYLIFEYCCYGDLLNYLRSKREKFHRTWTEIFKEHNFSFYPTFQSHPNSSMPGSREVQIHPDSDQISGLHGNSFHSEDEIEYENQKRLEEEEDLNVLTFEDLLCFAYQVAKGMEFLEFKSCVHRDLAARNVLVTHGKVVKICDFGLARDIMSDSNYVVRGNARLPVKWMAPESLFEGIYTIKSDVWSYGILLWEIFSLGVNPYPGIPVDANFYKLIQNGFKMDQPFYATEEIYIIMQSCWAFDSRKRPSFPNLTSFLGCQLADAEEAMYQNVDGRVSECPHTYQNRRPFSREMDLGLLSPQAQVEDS

For `Oc1n[nH]c2nnc(-c3c(-c4ccccc4)nn4ccccc34)cc12`, the inhibition in experiment [1] was 4.49%; in experiment [2], -4.85%; in [3] it was -2.29%; in experiment [4], 0.99%; in experiment [5] it was 8.59%; in experiment [6] it was -0.14%. Further, the inhibition in [7] is -4.33%; in [8], 0.15%; in experiment [9] it was 2.86%.

Take `Nc1n[nH]c2nnc(-c3c(-c4ccccc4)nn4ccccc34)cc12`: the inhibition in experiment [1] was 36.5%; in experiment [2], -4.95%; in experiment [3] it was 1.41%; in [4], -0.04%; in [5] it was 20.1%; in experiment [6], -2.71%. Besides, the inhibition in experiment [7] is -3.94%; in experiment [8], -6.71%; in [9], 45.9%.

A word on the inhibition: it is the change of the read-out against control, counted positive when it falls.
